Molecules are shown by their SMILES. Read-outs that look alike come from different tables or passages of the source. A value given as a limit tells only on which side of the number the result lay.

Series [1] is described as follows: In-situ salt formation screen (filtrate solubility). The note with it: thermodynamic from solid, read-out: Filtrate Solubility. The class given is physicochemical.
In series [2] the target is T1, human H4 (Homo sapiens, UniProt Q9H3N8).
T1 construct: host or cells: CHO-K1
T1 sequence (Q9H3N8 whole entry): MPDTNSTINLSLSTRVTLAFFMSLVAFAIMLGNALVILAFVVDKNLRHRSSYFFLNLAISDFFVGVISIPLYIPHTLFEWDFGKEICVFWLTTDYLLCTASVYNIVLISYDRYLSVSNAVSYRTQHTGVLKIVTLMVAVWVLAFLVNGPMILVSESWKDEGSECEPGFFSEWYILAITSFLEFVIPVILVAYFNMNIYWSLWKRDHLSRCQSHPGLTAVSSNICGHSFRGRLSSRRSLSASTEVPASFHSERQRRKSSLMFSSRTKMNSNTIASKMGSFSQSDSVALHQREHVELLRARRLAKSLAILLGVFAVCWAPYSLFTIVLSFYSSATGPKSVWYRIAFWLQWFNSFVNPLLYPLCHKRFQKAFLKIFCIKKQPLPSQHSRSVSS
Kind of series: In vitro histamine receptor cell-based assay (aequorin bioluminescence), antagonist mode. As to conditions: CHO-K1 cells expressing human H4, aequorin and Gα16; histamine at EC80. The procedure: (§1) The cell-based assays utilize an aequorin dependent bioluminescence signal. Doubly-transfected, stable CHO-K1 cell lines expressing human H4, or H1, mitochondrion-targeted aequorin, and (H4 only) human G protein Gα16 are obtained from Perkin-Elmer. Cells are maintained in F12 (Ham's) growth medium, containing 10% (vol./vol.) fetal bovine serum, penicillin (100 IU/mL), streptomycin (0.1 mg/mL), zeocin (0.25 mg/mL) and geneticin (0.40 mg/mL). Cell media components are from Invitrogen, Inc. One day prior to assay, the growth medium is replaced with the same, excluding zeocin and geneticin. In some assays, cells previously frozen at “ready to use density” are thawed and immediately available for loading with coelenterazine-h dye as described below. […]
(§2) Just before assay, the dye-loaded cells are diluted to 1.5×10^6 cells/mL (H4 receptor) or 0.75×10^6 cells/mL (H1 receptor) with additional assay medium. […] Assay plates are then transferred to a Lumilux bioluminescence plate reader (Perkin-Elmer) equipped with an automated 1536 disposable tip pipette. The pipette dispenses 3 μL/well of agonist (histamine, at twice the final concentration, where final concentration is a previously determined EC80) in assay medium, with concurrent bioluminescence detection. […] Efficacy is measured as a percentage of positive control activity.

Series [3] addresses T1, human H4. Kind of series: In vitro histamine receptor cell-based assay (aequorin bioluminescence), agonist mode. The note with it: CHO-K1 cells expressing human H4; test compound alone, without added histamine. The procedure:
as §1, §2

The test system of a further series is BALB/c mice. Kind of series: Model of allergic rhinitis in Balb/C mice, whole-body plethysmography. Type of series: in vivo. Set-up: key: +: increase in RF over positive control; −: no increase in RF over positive control. The note with it: 0.1%, w/v, intranasal instillation 10 μl in each nostril 2.5 hours prior to OVA; day 4 (early phase). From the text: Female BALB/c mice, 6-12 weeks of age, were obtained from Jackson Laboratories (Bar Harbor, Me.). All experimental animals used in this work were under a protocol approved by the Institutional Animal Care and Use Committee of the National Jewish Medical and Research Center, Denver, Colo.
The assay protocol is similar to that described in Miyahara, S. et al. (2005), J Allergy Clin Immunol., 116:1020-1027. The role of the H4 receptor in this model has been validated [Shiraishi, Y. et al. (2009), J Allergy Clin Immunol., 123:556]. Briefly, mice received intraperitoneal injections of 20 μg ovalbumin (OVA, Grade V; Sigma-Aldrich, St. Louis, Mo.), previously emulsified in 2.25 mg of alum (AlumImuject; Pierce, Rockford, Ill.) in a total volume of 100 μL (sensitization phase). Injections occurred on days 0 and 14. […] On day 4 (early phase) and day 7 (late phase) after starting OVA challenges, respiratory frequency (RF) was measured in conscious animals by single chamber restrained whole-body plethysmography (WBP) [Buxco Research Systems, Troy, N.Y.]. […] After whole-body plethysmography on day 7, nasal airflow impedance was measured as described (RNA, see Methods section for Miyahara S. et al. [above] in the online supplemental material at the Journal of Allergy and Clinical Immunology: www.jacionline.org), using a custom-designed ventilator (Flexivent; Scireq, Montreal, Quebec, Canada). […]

By solubility is commonly meant the dissolved amount per volume that the medium holds. As usually defined, the EC50 is the midpoint of the concentration-response curve. Consider `CN1CCN(c2ncc(-c3cccs3)n3nnnc23)CC1` [Compound 1, 8-(4-Methylpiperazin-1-yl)-5-(thiophen-2-yl)tetrazolo[1,5-a]pyrazine], for which the solubility at 48 h amounted to 7990 µg/mL in series [1] (aqueous buffer, 0.1M aqueous Acetic Acid, filtrate pH 4.02, filtrant Free Base); 1750 µg/mL in series [1] (aqueous buffer, 0.1M aqueous Citric Acid, filtrate pH 3.11, filtrant Salt); 6750 µg/mL in series [1] (aqueous buffer, 0.1M aqueous L-Glutamic Acid, filtrate pH 4.28, filtrant Free Base); 13400 µg/mL in series [1] (aqueous buffer, 0.1M aqueous L-Malic Acid, filtrate pH 4.15, filtrant Salt); 8690 µg/mL in series [1] (aqueous buffer, 0.1M aqueous L-Tartaric Acid, filtrate pH 3.48, filtrant Salt); 20000 µg/mL in series [1] (aqueous buffer, 0.1M aqueous Mesic Acid, filtrate pH 1.49, No Solids Isolated). Further, the solubility at 48 h in series [1] (aqueous buffer, 0.1M aqueous Phosphoric Acid, filtrate pH 1.76, filtrant Salt) is 870 µg/mL; in series [1] (aqueous buffer, 0.1M aqueous Succinic Acid, filtrate pH 4.13, filtrant Free Base) it was 10400 µg/mL; in series [1] (aqueous buffer, 0.1M aqueous Sulfuric Acid, filtrate pH 1.39, filtrant Salt), 560 µg/mL; in series [1] (pH 4.2, aqueous buffer, 0.1M aqueous L-Aspartic Acid, filtrate pH 4.20, filtrant Free Base), 8640 µg/mL; in series [1] (simulated gastric fluid, 0.1M aqueous Hydrochloric Acid, filtrate pH 1.25, filtrant Salt), 990 µg/mL. Moreover, the EC50 at human H4 [2] is at most 10 µM; on human H4 [3], above 100 µM. Further, the “WBP, Day 4 (respiratory frequency, RF)” value in the series with BALB/c mice is given as “+”.

As to `CNC1CN(c2ncc(-c3cccs3)n3nnnc23)C1` [Compound 2, N-methyl-1-(5-(thiophen-2-yl)tetrazolo[1,5-a]pyrazin-8-yl)azetidin-3-amine], the solubility at 48 h in series [1] (aqueous buffer, 0.1M aqueous Acetic Acid, filtrate pH 5.41, No Solids Isolated) is above 24500 µg/mL; in series [1] (aqueous buffer, 0.1M aqueous Citric Acid, filtrate pH 3.69, filtrant Salt) it was 4270 µg/mL; in series [1] (aqueous buffer, 0.1M aqueous L-Aspartic Acid, filtrate pH 4.95, No Solids Isolated), above 18400 µg/mL; in series [1] (aqueous buffer, 0.1M aqueous L-Glutamic Acid, filtrate pH 5.46, filtrant Free Base) it was 10400 µg/mL; in series [1] (aqueous buffer, 0.1M aqueous L-Malic Acid, filtrate pH 5.13, No Solids Isolated) it was above 21100 µg/mL; in series [1] (aqueous buffer, 0.1M aqueous L-Tartaric Acid, filtrate pH 3.23, filtrant Salt), 1390 µg/mL. For the same molecule, the solubility at 48 h was above 25300 µg/mL in series [1] (aqueous buffer, 0.1M aqueous Mesic Acid, filtrate pH 2.28, No Solids Isolated); 740 µg/mL in series [1] (aqueous buffer, 0.1M aqueous Phosphoric Acid, filtrate pH 4.8, filtrant Salt); 100 µg/mL in series [1] (aqueous buffer, 0.1M aqueous Succinic Acid, filtrate pH 4.75, filtrant Salt); 610 µg/mL in series [1] (aqueous buffer, 0.1M aqueous Sulfuric Acid, filtrate pH 1.42, filtrant Salt); 15200 µg/mL in series [1] (simulated gastric fluid, 0.1M aqueous Hydrochloric Acid, filtrate pH 2.32, filtrant Salt). Besides, the concentration for a half-maximal effect (EC50) was at most 10 µM on human H4 [2] and above 100 µM on human H4 [3]. Also, in the series with BALB/c mice, the “WBP, Day 4 (respiratory frequency, RF)” value is “+”.

These data come from patent US8859550B2, “Heterocyclic inhibitors of histamine receptors for the treatment of disease” (Kalypsys, Inc., priority 2011, dated 2014).
